In article PMC7000758 (Nature Communications, 2020):
Where “and” joins values, the source holds several entries; their conditions need not be identical. Identical values can stand only once. Entries after “also recorded” stand apart in the source; their conditions may differ. Like-named read-outs stand apart in the source and are kept apart here. One block for each compound: values may come before it.

How the values were obtained:
[1] = test system: choroidal NV at Bruch's membrane rupture sites; test: Mouse model of laser-induced choroidal NV (type 2); assay type: in vivo, C57BL/6 mice; settings: for CNVsize: individual eyes
Method: Mice were treated in accordance with the Association for Research in Vision and Ophthalmology Guidelines on the care and use of animals in research. All protocols were approved by the Animal Care and Use Committee of the Johns Hopkins University School of Medicine. Laser photocoagulation-induced rupture of Bruch’s membrane was used to generate choroidal NV[34]. […] One week after rupture of Bruch’s membrane, mice were euthanized, eyes were removed, anterior segments, retinas, and vitreous was removed, and eye cups were stained with fluorescein isothiocyanate (FITC)-conjugated GSA (Vector Laboratories, Burlingame, CA), and flat mounted. Flat mounts were examined by fluorescence microscopy and the area of each choroidal NV was measured by image analysis with Image-Pro Plus software (Media Cybernetics, Silver Spring, MD) by an observer masked with respect to experimental groups. The three areas obtained in each eye were averaged to give a single experimental value.

subretinal NV = test: Subretinal NV in rho/VEGF transgenic mice (type 3 choroidal NV); assay type: in vivo; settings: for Mean area of sunretinal NV per retina: Fig 4b, 40 µg at P14, individual retinas
Method: At P21, P28, P35, or P42, mice were euthanized and retinas were stained with FITC-labeled GSA lectin and flat mounted with photoreceptors facing up. Retinal flat mounts were examined by fluorescence microscopy and the area of subretinal NV was measured by image analysis by a masked observer.

[2] = test system: vascular leakage (vitreous albumin); test: Measurement of albumin in vitreous samples (ELISA); assay type: in vivo, rho/VEGF mice
Excerpt: Vitreous samples were obtained by inserting a micropipette into the vitreous cavity and gently aspirating the vitreous. Using the manufacturer’s instructions, a mouse albumin ELISA kit (ab108791; […] The plate wa read at 450 and 570 nm with SpectraMax Plus (Molecular Devices, San Jose, CA).

rhodopsin kinase (GRK-1) = test: Photoreceptor survival: rhodopsin kinase (GRK-1)/actin immunoblot of retinal homogenates; assay type: in vivo, rho/VEGF mice
Method: At P42, some mice were euthanized and eyes were marked at the 12:00 pole and frozen in embedding compound. […] At […] five mice were euthanized and retinas were dissected from each eye and homogenized in 150 μl lysis buffer (Abcam, Cambridge, MA) followed by high speed centrifuge (16,000 × g, 15 min). Supernatants were collected in pre-chilled eppendorf tubes. […] Membranes were probed with anti-GRK1 antibody (1:1000; ThermoFischer Scientific, Catalog no. PA5-13725, Lot no. […] Catalog no. A2066, Lot no. 019M4777V, Sigma Life Science, St. Louis, MO) overnight at 4 °C. […] Louis, MO) was added followed by incubation in SuperSignal West Dura Extended Duration Substrate (Thermofisher), and Western blots were imaged and analyzed with a Bio-mad imaging system.

VEGF-induced leukostasis = test: Retinal leukostasis (concanavalin A perfusion); assay type: in vivo, C57BL/6 mice; settings: 40 µg
Method: Leukostasis was measured by staining leukocytes with rhodamine- or FITC-labeled conA[52]. […] Vector Labs Thermofisher). The vasculature was flushed for 4 min with PBS to remove residual unbound conn A. […] Retinas were examined by fluorescence microscopy and the number of intravascular leukocytes throughout the entire retina were counted by an investigator masked with respect to treatment group. […] After washing, retinas were incubated in Alexa Fluor 594-conjugated goat anti-rat secondary antibody (1:500; A-11007 Invitrogen) for 1 h at room temperature. Retinas were washed, flat mounted and examined by fluorescence microscopy.

[3] = test system: photoreceptors (outer nuclear layer); test: Photoreceptor survival: ONL thickness in mice with type 3 choroidal NV; assay type: in vivo, rho/VEGF mice; settings: for ONL thickness: Fig 5b, 40 µg, P42, individual eyes
[4] = Pharmacokinetic study in mice (drug remaining in eye, LC-MS); assay type: in vivo, C57BL/6N mice; settings: for Remaining Drug (Normalized against T0) (%): mouse eye, intravitreous 1 µg sunitinib or equivalent
Excerpt: Twenty male or female 5–7-week-old C57BL/6N mice were anesthetized and the pupils were dilated as previously described. […] […], 5 mice from each condition were euthanized and the whole globes were collected and transferred to a bioanalytical facility for measurement of drug levels by liquid chromatography–mass spectrometry (LC–MS). The amount of drug remaining in the eye at 30 days was compared to and presented as a percentage of the initial dose injected in the eye.

[5] = Melanin binding of sunitinib in vitro; assay type: in vitro ADME, sepia officialis; settings: for percentage of melanin-bound sunitinib: 10 mg melanin in PBS, 1 h
[6] = Cataract after intravitreous injection in mice; assay type: in vivo, C57BL/6 mice; settings: intravitreous doses of free sunitinib >0.5 µg
Excerpt: The murine model of laser-induced rupture of Bruch’s membrane results in choroidal NV that is similar to type 2 choroidal NV in patients with NVAMD, because the new vessels originate from the choroid and penetrate through Bruch’s membrane and the RPE into the subretinal space. Studies in this model helped to implicate VEGF as a critical stimulus for NVAMD[4] and predicted the clinical benefits seen with aflibercept, a recombinant VEGF-neutralizing protein commonly used to treat patients with NVAMD[6],[35].

[7] = for Average release (%): Fig 1b dissolution of suspension
Method: At selected time points, 3 ml of the release medium was collected and replaced with 3 ml fresh release medium.

[8] = cited from earlier work
[9] = parameters: method as in rabbit PK study previously conducted by the authors; settings: rabbit; ref rabbit PK study previously conducted by the authors; cited from earlier work

Compound: aflibercept
CNVsize ([1]; Fig 2d, intravitreous 40 µg, 1W): 0.008066 mm2 and 0.009648 mm2 and 0.01333 mm2 and 0.01287 mm2 and 0.01253 mm2 and 0.01268 mm2 and 0.009735 mm2 and 0.0107 mm2
CNVsize ([1]; Fig 2d, intravitreous 40 µg, 9W): 0.03895 mm2 and 0.02251 mm2 and 0.03758 mm2 and 0.02161 mm2 and 0.01535 mm2 and 0.02051 mm2 and 0.02183 mm2
CNVsize ([1]; Fig 2d, intravitreous 40 µg, 15W, listed as Alfibercept): 0.02431 mm2 and 0.01432 mm2 and 0.01526 mm2 and 0.01738 mm2 and 0.01801 mm2 and 0.01547 mm2
choroidal NV vs PBS fellow eye ([1]; intravitreous 40 µg, 1 week after injection): significant suppression; also recorded: significant reduction
Mean area of sunretinal NV per retina (subretinal NV; P21): 0.006443 mm2 and 0.004033 mm2 and 0.006827 mm2 and 0.01579 mm2 and 0.001837 mm2 and 0.02155 mm2 and 0.01187 mm2 and 0.0074 mm2 and 0.009835 mm2 and 0.01142 mm2 and 0.01439 mm2 and 0.004674 mm2
Mean area of sunretinal NV per retina (subretinal NV; P28): 0.01232 mm2 and 0.01247 mm2 and 0.01867 mm2 and 0.01277 mm2 and 0.01806 mm2 and 0.01223 mm2 and 0.007648 mm2 and 0.002213 mm2 and 0.009102 mm2
Mean area of sunretinal NV per retina (subretinal NV; P35): 0.01325 mm2 and 0.02508 mm2 and 0.02389 mm2 and 0.02314 mm2 and 0.01559 mm2 and 0.02014 mm2 and 0.01286 mm2 and 0.008195 mm2 and 0.01062 mm2 and 0.006501 mm2 and 0.02165 mm2 and 0.01911 mm2 and 0.01968 mm2 and 0.008771 mm2 and 0.02218 mm2 and 0.008675 mm2
Mean area of sunretinal NV per retina (subretinal NV; P42): 0.01663 mm2 and 0.008316 mm2 and 0.01691 mm2 and 0.01919 mm2 and 0.01735 mm2 and 0.02425 mm2 and 0.00731 mm2 and 0.02809 mm2 and 0.01595 mm2
duration of inhibition of subretinal NV (subretinal NV; intravitreous 40 µg): 1 week
mean area of NV per retina vs PBS eyes (subretinal NV; intravitreous 40 µg at P14, P21): significantly less; also recorded: significantly lower
Concentrate of Albmin ([2]; Fig 4d, vitreous, 1 week after 40 µg at P28, individual eyes): 0.1634 µg and 0.1282 µg and 0.1305 µg and 0.1935 µg and 0.4253 µg
mean vitreous albumin concentration vs PBS eyes ([2]; P28 rho/VEGF mice, 1 week after intravitreous 40 µg): significantly less; also recorded: significant reduction
rhodopsin kinase/actin ratio vs PBS eyes (rhodopsin kinase (GRK-1); 40 µg at P14, P49): no difference
GRK-1/Actin (rhodopsin kinase (GRK-1); Fig 5d, 40 µg, P49, individual retinas): 0.8885 and 0.8156 and 1.021 and 0.9707 and 0.8036
mean number of adherent intravascular leukocytes vs PBS eyes (VEGF-induced leukostasis; 200 ng VEGF one week later, 24 h): significant reduction
Intravascular leukocytes per retina (VEGF-induced leukostasis; Fig 6a, individual retinas): 51 and 28 and 33 and 20 and 18 and 23 and 44 and 54
mean ONL thickness vs PBS eyes ([3]; 40 µg at P14, measured at P42): no significant difference
ONL thickness ([3]; location I1): 0.0549 mm and 0.04725 mm and 0.03173 mm and 0.03578 mm and 0.03893 mm and 0.04095 mm and 0.03375 mm
ONL thickness ([3]; location I2): 0.0504 mm and 0.04905 mm and 0.03735 mm and 0.04072 mm and 0.04027 mm and 0.05108 mm and 0.0387 mm
ONL thickness ([3]; location I3): 0.05017 mm and 0.03982 mm and 0.03465 mm and 0.03645 mm and 0.0351 mm and 0.04972 mm and 0.04208 mm
ONL thickness ([3]; location S1): 0.04253 mm and 0.0441 mm and 0.03465 mm and 0.0414 mm and 0.04478 mm and 0.04545 mm
ONL thickness ([3]; location S2): 0.04208 mm and 0.05085 mm and 0.0423 mm and 0.04275 mm and 0.04905 mm and 0.03982 mm and 0.0504 mm
ONL thickness ([3]; location S3): 0.04163 mm and 0.0486 mm and 0.03825 mm and 0.04095 mm and 0.04455 mm and 0.03915 mm and 0.0495 mm

half-life ([4]; both sexes, C57BL/6N, mouse, whole eye (globe), other: intravitreous injection, 1 µg, read-out: overall half-life in mouse eyes (converted)): ~50.4 h
Remaining Drug (Normalized against T0) (%) ([4]; day 7, listed as Sunitinib Suspension): 10.1%
Remaining Drug (Normalized against T0) (%) ([4]; day 7, listed as free sunitinib): 10.1±0.7%
Remaining Drug (Normalized against T0) (%) ([4]; day 30, listed as Sunitinib Suspension): 8.8%
Remaining Drug (Normalized against T0) (%) ([4]; day 30, listed as sunitinib drug suspension): 9%
percentage of drug bound to melanin ([5]; at a ratio of <10): 96–99.8%
percentage of melanin-bound sunitinib ([5]; sunitinib-to-melanin mass ratio 0.001%): 99.8%
percentage of melanin-bound sunitinib ([5]; sunitinib-to-melanin mass ratio 20%): ~ 80%
cataract [6]: severe cataract
Average release (%) ([7]; 0.125 days): 34.3%
Average release (%) ([7]; 1 day): 51.9%
Average release (%) ([7]; 3 days): 68.4%
Average release (%) ([7]; 10 days): 89.0%
Average release (%) ([7]; 17 days): 95.0%
Average release (%) ([7]; 24 days): 99.5%
Average release (%) ([7]; 30 days): 100.0%
Compound: CCN(CC)CCNC(=O)c1c(C)[nH]c(/C=C2\C(=O)Nc3ccc(F)cc32)c1C [sunitinib, reference compound]
CNVsize ([1]; Fig 2c, intravitreous free sunitinib 0.1µg, 1 week): 0.01929 mm2 and 0.0114 mm2 and 0.03268 mm2 and 0.02288 mm2 and 0.01524 mm2 and 0.02254 mm2 and 0.02987 mm2 and 0.01948 mm2 and 0.01091 mm2
CNVsize ([1]; Fig 2c, intravitreous free sunitinib 0.5µg, 1 week): 0.008346 mm2 and 0.0258 mm2 and 0.01396 mm2 and 0.0209 mm2 and 0.02253 mm2 and 0.02124 mm2 and 0.01904 mm2 and 0.01077 mm2 and 0.02107 mm2 and 0.01493 mm2
mean area of choroidal NV vs PBS fellow eye ([1]; intravitreous 0.5 or 0.1 µg free sunitinib, 1 week): no significant difference; also recorded: no significant reduction
behaviour in release medium in vitro ([7]; Fig. 1b, open squares): rapidly eluted and dissolved in release medium
solubility in acidic aqueous solutions ([8]; pH 1.2–6.8): high solubility
aqueous solubility ([8]; pH 7.4): low aqueous solubility
vitreous half-life [9]: ~ 2 days
